Results on 2 compounds are retold here after paper PMC5320522, “Membrane targeting of TIRAP is negatively regulated by phosphorylation in its phosphoinositide-binding motif” (Scientific Reports, 2017).

Common to all, as to type: binding
For assay [1], the target named is T1, TIRAP PBM (Homo sapiens, UniProt P58753).
T1 construct: recombinant (isotope-labelled) or synthetic (Thr28-P); GST-fused in overlay assays
Description: 1H, […]-HSQC NMR; lipid-protein overlay. Conditions: DPC micelles, pH 6, 25 °C (NMR).

Assay [2] concerns the target T1, TIRAP PBM. Description: SPR, L1 chip with liposomes, steady-state fit. Conditions: DOPC liposomes with 5% PtdIns(4,5)P2; 20 mM HEPES pH 7, 100 mM NaCl; room temperature; synthetic peptide phosphorylated at Thr28; saturation not reached.
In assay [3] the target is T1, TIRAP PBM. Description: SPR, L1 chip with liposomes, steady-state fit. As to conditions: DOPC liposomes with 5% PtdIns(4,5)P2; 20 mM HEPES pH 7, 100 mM NaCl; room temperature; read-out: KD (apparent).

Like-named read-outs stand apart in the source and are kept apart here.

T1 sequence (P58753 15-35): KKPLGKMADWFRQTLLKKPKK

Regarding `CCCCCCCCCCCCCCCC(=O)OC[C@H](COP(=O)(O)O[C@@H]1[C@H](O)[C@H](O)[C@@H](OP(=O)(O)O)[C@H](OP(=O)(O)O)[C@H]1O)OC(=O)CCCCCCCCCCCCCCC` [c16-PtdIns(4,5)P2], on TIRAP PBM [1], the “1H,15N-HSQC NMR; lipid-protein overlay” value was “Similar, but larger, resonance perturbations in DPC-embedded TIRAP PBM spectra were observed”.

For the compound PtdIns(4,5)P2, the figures for the Kd at TIRAP PBM [2] and at TIRAP PBM [3] were 787 ± 291 nM and 233 ± 45 nM, respectively.
